Measurements from patent US8318644B2, “Lubricating oil” (Idemitsu Kosan Co., Ltd., priority 2003, dated 2012).

Assay: Density of ionic liquids
Format: physicochemical
Details: 20° C.
Procedure: Density and molecular weight (Mw) of Ionic liquids 1 to 4 were determined at 20° C., and each ion concentration was calculated from the relationship: [density of ionic liquid (g/cm^3)/molecular weight (MW) of ionic liquid (g/mol)]×1000.

Molecule | density
N,N-diethyl-N-methyl(2-methoxyethyl)ammonium bis(trifluoromethanesulfonyl)imide [Ionic liquid 3] | 1.420 g/mL
CCn1cc[n+](C)c1.F[B-](F)(F)F [Ionic liquid 1, 1-Ethyl-3-methylimidazolium tetrafluoroborate] | 1.283 g/mL
CCCCn1cc[n+](C)c1.F[B-](F)(F)F [Ionic liquid 4, 1-Butyl-3-methylimidazolium tetrafluoroborate] | 1.208 g/mL
Butylpyridinium bis(trifluoromethanesulfonyl)imide [Ionic liquid 2] | 1.453 g/mL
